“And” between values parts separate entries of the source, which are not always exact repeats. Equal entries are not always repeated.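 Growth conditions: 96-well plates. Treatment: test compound, 48 hours, 5 concentrations. Analysis: linear interpolation between bracketing concentrations; unreached endpoints set to highest concentration. GI50 is the concentration that inhibits growth by half. TGI denotes the concentration required for complete inhibition of growth.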
Experiments:
Experiment in all cases: NCI-60 cell line screen, 48 h
U251 CNS = system: U251 CNS
SNB-75 CNS = system: SNB-75 CNS
UACC-257 melanoma = system: UACC-257 melanoma
MDA-N = system: MDA-N
BT-549 breast = system: BT-549 breast
UO-31 renal = system: UO-31 renal
HS 578T breast = system: HS 578T breast
SK-MEL-5 melanoma = system: SK-MEL-5 melanoma
HOP-62 NSCLC = system: HOP-62 NSCLC
NCI-H23 lung = system: NCI-H23 lung
SF-295 CNS = system: SF-295 CNS
MOLT-4 leukemia = system: MOLT-4 leukemia
HL-60(TB) leukemia = system: HL-60(TB) leukemia
UACC-62 melanoma = system: UACC-62 melanoma
SR leukemia = system: SR leukemia
SN12C renal = system: SN12C renal
OVCAR-5 ovarian = system: OVCAR-5 ovarian
CAKI-1 renal = system: CAKI-1 renal
MCF7 breast = system: MCF7 breast
SK-MEL-2 melanoma = system: SK-MEL-2 melanoma
IGROV1 ovarian = system: IGROV1 ovarian
NCI-H226 lung = system: NCI-H226 lung
M14 melanoma = system: M14 melanoma
OVCAR-4 ovarian = system: OVCAR-4 ovarian
NCI/ADR-RES ovarian = system: NCI/ADR-RES ovarian
PC-3 prostate = system: PC-3 prostate
HCT-116 colon = system: HCT-116 colon
MALME-3M melanoma = system: MALME-3M melanoma
HT29 colon = system: HT29 colon
RXF 393 renal = system: RXF 393 renal
RPMI-8226 leukemia = system: RPMI-8226 leukemia
CCRF-CEM leukemia = system: CCRF-CEM leukemia
HCT-15 colon = system: HCT-15 colon
HCC-2998 colon = system: HCC-2998 colon
COLO 205 colon = system: COLO 205 colon
T-47D breast = system: T-47D breast
OVCAR-3 ovarian = system: OVCAR-3 ovarian
MDA-MB-435 = system: MDA-MB-435
SW-620 colon = system: SW-620 colon
ACHN renal = system: ACHN renal
SF-539 CNS = system: SF-539 CNS
SK-MEL-28 melanoma = system: SK-MEL-28 melanoma
EKVX NSCLC = system: EKVX NSCLC
MDA-MB-231 breast = system: MDA-MB-231 breast
NCI-H460 lung = system: NCI-H460 lung
A549 NSCLC = system: A549 NSCLC
NCI-H522 lung = system: NCI-H522 lung
786-0 renal = system: 786-0 renal
KM12 colon = system: KM12 colon
HOP-92 NSCLC = system: HOP-92 NSCLC
SK-OV-3 ovarian = system: SK-OV-3 ovarian
A498 renal = system: A498 renal
OVCAR-8 ovarian = system: OVCAR-8 ovarian
SF-268 CNS = system: SF-268 CNS
SNB-19 CNS = system: SNB-19 CNS
DU-145 prostate = system: DU-145 prostate
LOX IMVI melanoma = system: LOX IMVI melanoma
TK-10 renal = system: TK-10 renal
K-562 leukemia = system: K-562 leukemia

## CCCCC1=NNC(=O)C1
U251 CNS
  TGI: > 100 µM
SNB-75 CNS
  TGI: > 100 µM
UACC-257 melanoma
  TGI: > 100 µM
MDA-N
  TGI: > 100 µM
BT-549 breast
  TGI: > 100 µM
UO-31 renal
  TGI: > 100 µM
HS 578T breast
  TGI: > 100 µM
SK-MEL-5 melanoma
  TGI: > 100 µM
HOP-62 NSCLC
  TGI: > 100 µM
NCI-H23 lung
  TGI: > 100 µM
SF-295 CNS
  TGI: > 100 µM
MOLT-4 leukemia
  TGI: > 100 µM
HL-60(TB) leukemia
  TGI: > 100 µM
UACC-62 melanoma
  TGI: > 100 µM
SR leukemia
  TGI: > 100 µM
SN12C renal
  TGI: > 100 µM
OVCAR-5 ovarian
  TGI: > 100 µM
CAKI-1 renal
  TGI: > 100 µM
MCF7 breast
  TGI: > 100 µM
SK-MEL-2 melanoma
  TGI: > 100 µM
IGROV1 ovarian
  TGI: > 100 µM
NCI-H226 lung
  TGI: > 100 µM
M14 melanoma
  TGI: > 100 µM
OVCAR-4 ovarian
  TGI: > 100 µM
NCI/ADR-RES ovarian
  TGI: > 100 µM
PC-3 prostate
  TGI: > 100 µM
HCT-116 colon
  TGI: > 100 µM
MALME-3M melanoma
  TGI: > 100 µM
HT29 colon
  TGI: > 100 µM
RXF 393 renal
  TGI: > 100 µM
RPMI-8226 leukemia
  TGI: > 100 µM
CCRF-CEM leukemia
  TGI: > 100 µM
HCT-15 colon
  TGI: > 100 µM
HCC-2998 colon
  TGI: > 100 µM
COLO 205 colon
  TGI: > 100 µM
T-47D breast
  TGI: > 100 µM
OVCAR-3 ovarian
  TGI: > 100 µM
MDA-MB-435
  TGI: > 100 µM
SW-620 colon
  TGI: > 100 µM
ACHN renal
  TGI: > 100 µM
SF-539 CNS
  TGI: > 100 µM
SK-MEL-28 melanoma
  TGI: > 100 µM
EKVX NSCLC
  TGI: > 100 µM
MDA-MB-231 breast
  TGI: > 100 µM
NCI-H460 lung
  TGI: > 100 µM
A549 NSCLC
  TGI: > 100 µM
NCI-H522 lung
  TGI: > 100 µM
786-0 renal
  TGI: > 100 µM
KM12 colon
  TGI: > 100 µM
HOP-92 NSCLC
  TGI: > 100 µM
SK-OV-3 ovarian
  TGI: > 100 µM
A498 renal
  TGI: > 100 µM
OVCAR-8 ovarian
  TGI: > 100 µM

## COCC1OC(Sc2ccccc2)C(O)C(OC)C1OC (stereo not given)
SF-268 CNS
  TGI: > 100 µM
U251 CNS
  TGI: > 100 µM
SNB-75 CNS
  GI50: > 100 µM and 10.1 µM
  TGI: > 100 µM
UACC-257 melanoma
  TGI: > 100 µM
MDA-N
  TGI: > 100 µM
BT-549 breast
  TGI: > 100 µM
UO-31 renal
  TGI: > 100 µM
HS 578T breast
  TGI: > 100 µM
SK-MEL-5 melanoma
  TGI: > 100 µM
HOP-62 NSCLC
  TGI: > 100 µM
NCI-H23 lung
  TGI: > 100 µM
SF-295 CNS
  TGI: > 100 µM
MOLT-4 leukemia
  TGI: > 100 µM
HL-60(TB) leukemia
  TGI: > 100 µM
UACC-62 melanoma
  TGI: > 100 µM
SR leukemia
  TGI: > 100 µM
SN12C renal
  TGI: > 100 µM
OVCAR-5 ovarian
  TGI: > 100 µM
CAKI-1 renal
  TGI: > 100 µM
MCF7 breast
  TGI: > 100 µM
SK-MEL-2 melanoma
  TGI: > 100 µM
SNB-19 CNS
  TGI: > 100 µM
IGROV1 ovarian
  TGI: > 100 µM
NCI-H226 lung
  TGI: > 100 µM
DU-145 prostate
  TGI: > 100 µM
M14 melanoma
  TGI: > 100 µM
OVCAR-4 ovarian
  TGI: > 100 µM
NCI/ADR-RES ovarian
  TGI: > 100 µM
LOX IMVI melanoma
  TGI: > 100 µM
PC-3 prostate
  TGI: > 100 µM
HCT-116 colon
  TGI: > 100 µM
MALME-3M melanoma
  TGI: > 100 µM
HT29 colon
  TGI: > 100 µM
RXF 393 renal
  TGI: > 100 µM
CCRF-CEM leukemia
  TGI: > 100 µM
HCT-15 colon
  TGI: > 100 µM
HCC-2998 colon
  TGI: > 100 µM
COLO 205 colon
  TGI: > 100 µM
T-47D breast
  TGI: > 100 µM
OVCAR-3 ovarian
  TGI: > 100 µM
MDA-MB-435
  TGI: > 100 µM
SW-620 colon
  TGI: > 100 µM
ACHN renal
  TGI: > 100 µM
SF-539 CNS
  TGI: > 100 µM
SK-MEL-28 melanoma
  TGI: > 100 µM
EKVX NSCLC
  TGI: > 100 µM
MDA-MB-231 breast
  TGI: > 100 µM
TK-10 renal
  TGI: > 100 µM
NCI-H460 lung
  TGI: > 100 µM
A549 NSCLC
  TGI: > 100 µM
NCI-H522 lung
  TGI: > 100 µM
786-0 renal
  TGI: > 100 µM
KM12 colon
  TGI: > 100 µM
K-562 leukemia
  TGI: > 100 µM
SK-OV-3 ovarian
  TGI: > 100 µM
OVCAR-8 ovarian
  TGI: > 100 µM

Reference: PubChem BioAssay (NCI)
